Reference: US20260109707A1, “HETEROBIFUNCTIONAL COMPOUNDS AND METHODS OF TREATING DISEASE” (Halda Therapeutics OpCo. Inc., priority 2022, published 2026)

Assays:
[1] = tested on: T-Rex 293 cell line SC3 cells having increased expression of androgen receptor protein due to exposure to doxycycline; test: Cellular growth inhibition assay, T-Rex 293 SC3 cells with doxycycline (CellTiter-Glo, 72 hours); type: cell-based; details: 72 h, T-Rex 293 SC3 cells with increased androgen receptor expression due to doxycycline (10 ng/mL)
Summary of the method: (§1)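 Doxycycline (10 ng/mL) was either included or omitted to toggle wild-type androgen receptor expression in SC3 cells, a T-Rex 293 clone, grown in stripped-serum, phenol red-free medium. After 72 hours with compound, viable cells were quantified by CellTiter-Glo 2.0.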

[2] = tested on: T-Rex 293 cell line SC3 cells lacking increased expression of androgen receptor protein; test: Cellular growth inhibition assay, T-Rex 293 SC3 cells without doxycycline (CellTiter-Glo, 72 hours); type: cell-based; details: 72 h, T-Rex 293 cell line SC3 cells not exposed to doxycycline (lacking increased androgen receptor expression)
Summary of the method: as §1

VCaP cells = test: Cellular growth inhibition assay for VCaP cells (CellTiter-Glo, 72 hours); type: cell-based, human; details: Homo sapiens, VCaP, 72 h
Summary of the method: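 Luminescent viability signal after 72 h of compound exposure gave GI50 values by four-parameter nonlinear regression. Compounds were added in 0.5% DMSO to cells plated 24 h earlier at 5000/well in DMEM containing 10% FBS.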

T47D cells = test: Cellular growth inhibition assay for T47D cells (CellTiter-Glo, 72 hours); type: cell-based, human; details: Homo sapiens, T47D, 72 h, 72 hours treatment
Protocol: T47D cells were purchased from American Type Cell Culture (ATCC Cat #HTB-133) and then seeded on poly-D-lysine coated, black clear-bottom 384-well plates at 3000/well in 25 μL Dulbecco's Modified Eagle Medium (DMEM) supplemented with 10% w/w Fetal bovine serum (FBS), 0.2 units/mL recombinant human insulin (Gibco Cat #12585014), and 1% w/w Pen-Strep. Pen-Strep is a commercially available mixture of penicillin G and streptomycin, which is used in mammalian cell culture media to prevent bacterial contamination. Dulbecco's Modified Eagle Medium (DMEM) supplemented with 10% w/w fetal bovine serum (FBS), 0.2 units/mL recombinant human insulin, and 1% w/w Pen-Strep is herein referred to as Treatment Medium. Following seeding of cells in the plates, the plates were spun at 300×g for 30 seconds, then equilibrated to room temperature for 30 minutes, and then deposited in a humidified tissue culture incubator maintained at 37° C. with 5% CO2.
At 24 hours after seeding of the cells, dilutions of test compound were prepared in DMSO and dissolved in Treatment Medium, to achieve a final DMSO concentration of 0.5% w/w, thereby providing the Test Compound Solution. A 25 μL aliquot of the Test Compound Solution was added to cells in the well plates. An equal volume of a solution containing DMSO and Treatment Medium was used as a negative control. Following treatment of cells with Test Compound Solution or said equal volume of a solution containing DMSO and Treatment Medium, the plates were spun at 300×g for 30 seconds, and then left in an incubator for 72 hours.
At the end of the treatment duration, cell viability was quantified with CellTiter-Glo 2.0 reagent (Promega Cat #G9243). For this purpose, plates were equilibrated to room temperature for 30 minutes, and then 25 μL of CellTiter-Glo 2.0 reagent was added to cells in the plate wells. Plates were then agitated on a shaker for two minutes at 500 rpm and subsequently incubated at room temperature for 10 minutes. Following incubation, the plates were spun at 3000×g for 30 seconds, then sealed with an optical adhesive cover, and luminescence readings were measured with an EnVision Plate Reader (Perkin Elmer).
Data was normalized using zero luminescence for baseline. A four-parameter non-linear regression curve fit was applied to dose-response data in GraphPad Prism data analysis software to determine the half-maximal growth inhibitory concentration (GI50) for each test compound.

| Compound | GI50 (VCaP cells) | GI50 (T47D cells) | GI50 [1] | GI50 [2] |
| --- | --- | --- | --- | --- |
| Cc1sc2c(c1C)C(c1ccc(C=C3CC4(CCCN(c5ccc(C(=O)NC6CCC(Oc7ccc(C#N)c(Cl)c7)CC6)nn5)C4)C3)cc1)=N[C@@H](Cc1ncco1)c1nnc(C)n1-2 (stereo partly drawn) [I-142, N-[4-(3-chloro-4-cyano-phenoxy)cyclohexyl]-6-[2-[[4-[(9S)-4,5,13-trimethyl-9-(oxazol-2-ylmethyl)-3-thia-1,8,11,12-tetrazatricyclo[8.3.0.02,6]trideca-2(6),4,7,10,12-pentaen-7-yl]phenyl]methylene]-6-azaspiro[3.5]nonan-6-yl]pyridazine-3-carboxamide] | < 500 nM | < 500 nM | < 500 nM | < 500 nM |
| Cc1sc2c(c1C)C(c1ccc(OCCC3CCN(c4ccc(C(=O)N[C@H]5CC[C@H](Oc6ccc(C#N)c(Cl)c6)CC5)nn4)CC3)cc1)=NC(Cc1ncco1)c1nnc(C)n1-2 (stereo partly shown) [I-78] | < 500 nM | < 500 nM | < 500 nM | < 500 nM |
| Cc1sc2c(c1C)C(c1ccc(N3CCC4(CC3)CCN(c3ccc(C(=O)NC5CCC(Oc6ccc(C#N)c(Cl)c6)CC5)nn3)CC4)cc1)=N[C@@H](Cc1ncco1)c1nnc(C)n1-2 (stereo partly shown) [I-397] | < 500 nM | < 500 nM | < 500 nM | < 500 nM |
| Cc1sc2c(c1C)C(c1ccc(C#CC3CC4(CCCN(c5ccc(C(=O)N[C@H]6CC[C@H](Oc7ccc(C#N)c(Cl)c7)CC6)nn5)C4)C3)cc1)=NCc1nnc(C)n1-2 (stereo partly shown) [I-420] | < 500 nM | 1500 to 3000 nM | < 500 nM | > 3000 nM |
| Cc1sc2c(c1C)C(c1ccc(O[C@H]3C[C@]4(CCCN(c5ccc(C(=O)N[C@H]6CC[C@H](Oc7ccc(C#N)c(Cl)c7)CC6)nn5)C4)C3)cc1)=N[C@@H](C)c1nnc(C)n1-2 [I-350] | < 500 nM | 500 to 1500 nM | < 500 nM | > 3000 nM |
| Cc1sc2c(c1C)C(c1ccc(CNC(=O)N3CCC(c4ccc(C(=O)N[C@H]5CC[C@H](Oc6ccc(C#N)c(Cl)c6)CC5)nn4)CC3)cc1)=N[C@@H](Cc1ncco1)c1nnc(C)n1-2 [I-228] | < 500 nM | < 500 nM | < 500 nM | > 3000 nM |
| CCNC(=O)C[C@@H]1N=C(c2ccc(OC3CN(c4ccc(C(=O)N[C@H]5CC[C@H](Oc6ccc(C#N)c(Cl)c6)CC5)nn4)C3)cc2)c2c(sc(C)c2C)-n2c(C)nnc21 [I-47] | 500 to 1500 nM | 500 to 1500 nM | < 500 nM | 500 to 1500 nM |
| Cc1sc2c(c1C)C(c1ccc(C3CCC(N4CCCN(c5ccc(C(=O)N[C@H]6CC[C@H](Oc7ccc(C#N)c(Cl)c7)CC6)nn5)CC4)CC3)cc1)=N[C@H](Cc1ncco1)c1nnc(C)n1-2 (stereo partly shown) [I-225] | < 500 nM | < 500 nM | < 500 nM | < 500 nM |
| Cc1sc2c(c1C)C(c1ccc(-c3ccc(C4CC5(C4)CN(c4ccc(C(=O)N[C@H]6CC[C@H](Oc7ccc(C#N)c(Cl)c7)CC6)nn4)C5)cc3)cc1)=N[C@@H](Cc1ncco1)c1nnc(C)n1-2 [I-412] | 500 to 1500 nM | < 500 nM | < 500 nM | < 500 nM |
| CCNC(=O)C[C@@H]1N=C(c2ccc(N3CCN(C4CN(c5ccc(C(=O)N[C@H]6CC[C@H](Oc7ccc(C#N)c(Cl)c7)CC6)nn5)C4)CC3)cc2)c2c(sc(C)c2C)-n2c(C)nnc21 [I-41] | < 500 nM | < 500 nM | < 500 nM | 500 to 1500 nM |
| Cc1sc2c(c1C)C(c1ccc(C(=O)N3CCC(Cc4ccc(C(=O)N[C@H]5CC[C@H](Oc6ccc(C#N)c(Cl)c6)CC5)nn4)CC3)cc1)=N[C@H](Cc1ncco1)c1nnc(C)n1-2 [I-241] | 500 to 1500 nM | 500 to 1500 nM | < 500 nM | 500 to 1500 nM |
| Cc1sc2c(c1C)C(c1ccc(O[C@H]3C[C@@]4(CCCN(c5ccc(C(=O)N[C@H]6CC[C@H](Oc7ccc(C#N)c(Cl)c7)CC6)nn5)C4)C3)cn1)=N[C@@H](Cc1ncco1)c1nnc(C)n1-2 [I-261] | < 500 nM | < 500 nM | < 500 nM | < 500 nM |
| CC1=NN=C2C1c1sc(C)c(C)c1C(c1ccc(C#CC3CCN(c4ccc(C(=O)N[C@H]5CC[C@H](Oc6ccc(C#N)c(Cl)c6)CC5)nn4)CC3)cc1)=N[C@H]2Cc1ncco1 (stereo partly shown) [I-394] | < 500 nM | < 500 nM | < 500 nM | < 500 nM |
| Cc1sc2c(c1C)C(c1ccc(N3CCC[C@H](C(=O)N4CCC[C@H](c5ccc(C(=O)N[C@H]6CC[C@H](Oc7ccc(C#N)c(Cl)c7)CC6)nn5)C4)C3)cc1)=N[C@@H](Cc1ncco1)c1nnc(C)n1-2 [I-301] | < 500 nM | < 500 nM | < 500 nM | < 500 nM |
| Cc1sc2c(c1C)C(c1ccc(C[C@H]3CC[C@]4(C3)CN(c3ccc(C(=O)N[C@H]5CC[C@H](Oc6ccc(C#N)c(Cl)c6)CC5)nn3)CCO4)cc1)=N[C@@H](Cc1ncco1)c1nnc(C)n1-2 [I-266] | < 500 nM | < 500 nM | < 500 nM | < 500 nM |

Continued, in another order:

| GI50 (VCaP cells) | GI50 (T47D cells) | Compound | GI50 [1] | GI50 [2] |
| --- | --- | --- | --- | --- |
| > 3000 nM | > 3000 nM | Cc1sc2c(c1C)C(c1ccc([C@@H]3CCN(C(=O)[C@@H]4CCCN(c5ccc(C(=O)N[C@H]6CC[C@H](Oc7ccc(C#N)c(Cl)c7)CC6)nn5)C4)C3)cc1)=N[C@@H](Cc1ncco1)c1nnc(C)n1-2 [I-341] | > 3000 nM | > 3000 nM |
| 1500 to 3000 nM | 1500 to 3000 nM | Cc1sc2c(c1C)C(c1ccc(C(=O)N3CC[C@]4(CCCN(c5ccc(C(=O)N[C@H]6CC[C@H](Oc7ccc(C#N)c(Cl)c7)CC6)nn5)C4)C3)cc1)=N[C@H](Cc1ncco1)c1nnc(C)n1-2 [I-272] | < 500 nM | > 3000 nM |
| > 3000 nM | > 3000 nM | CC1=NN=C2C1c1sc(C)c(C)c1C(c1ccc(C3CCC4(CC3)CCN(c3ccc(C(=O)N[C@H]5CC[C@H](Oc6ccc(C#N)c(Cl)c6)CC5)nn3)CC4)cc1)=N[C@H]2Cc1ncco1 (stereo partly shown) [I-409] | > 3000 nM | > 3000 nM |
| < 500 nM | < 500 nM | Cc1sc2c(c1C)C(c1ccc(OC[C@H]3CC[C@]4(C3)CN(c3ccc(C(=O)N[C@H]5CC[C@H](Oc6ccc(C#N)c(Cl)c6)CC5)nn3)CCO4)cn1)=N[C@@H](Cc1ncco1)c1nnc(C)n1-2 [I-405] | < 500 nM | < 500 nM |
| < 500 nM | < 500 nM | Cc1sc2c(c1C)C(c1ccc(C[C@H]3CCCN(c4ccc(C(=O)N[C@H]5CC[C@H](Oc6ccc(C#N)c(Cl)c6)CC5)nn4)C3)cc1)=N[C@@H](Cc1ncco1)c1nnc(C)n1-2 [I-253] | < 500 nM | < 500 nM |
| < 500 nM | < 500 nM | Cc1sc2c(c1C)C(c1ccc(N3CC(C4CC5(C4)CN(c4ccc(C(=O)N[C@H]6CC[C@H](Oc7ccc(C#N)c(Cl)c7)CC6)nn4)C5)C3)cc1)=N[C@@H](Cc1ncco1)c1nnc(C)n1-2 [I-387] | < 500 nM | < 500 nM |
| < 500 nM | > 3000 nM | CC1=NN=C2C1c1sc(C)c(C)c1C(c1ccc(C#CC3C4CN(c5ccc(C(=O)N[C@H]6CC[C@H](Oc7ccc(C#N)c(Cl)c7)CC6)nn5)CC34)cc1)=N[C@H]2Cc1ncco1 (stereo partly shown) [I-407] | > 3000 nM | > 3000 nM |
| < 500 nM | > 3000 nM | Cc1sc2c(c1C)C(c1ccc(C#CC3CC4(C3)CN(c3ccc(C(=O)N[C@H]5CC[C@H](Oc6ccc(C#N)c(Cl)c6)CC5)nn3)C4)cc1)=N[C@H](Cc1ncco1)c1nnc(C)n1-2 [I-227] | < 500 nM | > 3000 nM |
| < 500 nM | < 500 nM | Cc1sc2c(c1C)C(c1ccc(CCO[C@@H]3CCCN(c4ccc(C(=O)N[C@H]5CC[C@H](Oc6ccc(C#N)c(Cl)c6)CC5)nn4)C3)cc1)=N[C@@H](Cc1ncco1)c1nnc(C)n1-2 [I-278] | < 500 nM | > 3000 nM |
| < 500 nM | < 500 nM | Cc1sc2c(c1C)C(c1ccc(C3CN(C4CCN(c5ccc(C(=O)N[C@H]6CC[C@H](Oc7ccc(C#N)c(Cl)c7)CC6)nn5)C4)C3)cc1)=N[C@@H](Cc1ncco1)c1nnc(C)n1-2 (stereo partly shown) [I-209] | < 500 nM | < 500 nM |
